Laboratory results: patent US20080096903A1, “SULFAMOYL-CONTAINING DERIVATIVES AND USES THEREOF” (Wyeth, priority 2006, published 2008)
Like-named read-outs stand apart in the source and are kept apart here.

Columns and labels:
[1] = tested on: Human cancer cell lines; experiment: Cancer-Derived Cell Line Growth Inhibition Assays; assay type: cell-based; conditions: 72 h, 3 days, Cell Titer Blue
Protocol: Cancer-Derived Cell Line Growth Inhibition Assays
Human cancer cell lines were obtained from ATCC (Rockville, Md.) and maintained according to their media specifications at 37° C. in humidified incubators with or without 5% CO2. Cells were plated at 0.1 ml/well of 50,000 cells per ml in 96 well plates. Monolayer grown cells were incubated overnight prior to the addition of compound while cells grown in suspension are given compound on the same day as plating. The test agent is titrated in duplicate for each compound and concentration tested. Cells are incubated in the presence of compound at 37° C. in humidified incubators for 3 days prior to addition of 20 ul of Cell Titer Blue (Promega, Madison, Wis.) which quantifies total cellular metabolic activity by conversion of resazurin to resorufin. Cell titer blue measures metabolic activity by quantifying the amount of biological activity present in a well using reduction of the dye resazurin as an end-point metric. Cells then are allowed to incubate at 37° C. for 2 hours and then analyzed using a Bio-TEK (Winooski, Vt.) Synergy HT 96/384 well plate reader set for 530 nm/590 nm, Ex/Em. Data analysis and depiction is conducted using EXCEL.

[2] = tested on: Hsp90 (luciferase refolding, cancer cell lysate); experiment: Luciferase Refolding Assay; assay type: biochemical; conditions: inhibition of luciferase refolding by Hsp90
Protocol: Luciferase Refolding Assay
• A. Cancer cells are cultured according to ATCC guidelines. Cell lysates are prepared as follows to be used as source of heat shock proteins: Resuspend the washed cell pellet in 3˜10 packed cell volumes of Buffer A (10 mM HEPES pH 7.9, 1.5 mM MgCl2, 10 mM KCl, 0.5 mM DTT, and 0.2 mM PMSF). Spin at 2000 rpm for 5 minutes in GS-6R (Beckman) centrifuge, 4° C. and resuspend cells in Buffer A up to a final of 3 packed cell volumes (i.e., add ˜2 volumes). Incubate on ice for 10 minutes. Transfer the cells to a Wheaton A Dounce homogenizer and lyse with 10-25 strokes. Stain an aliquot with Trypan Blue and check for >90% lysis under microscope. Spin the homogenized mixture at 3000 rpm for 20 minutes in GS-6R (Beckman) centrifuge, 4° C., to pellet nuclei. To the cytoplasmic fraction (cell lysate), add 1 mM ATP, 14.3 mM creatine phosphate, 71 μg/ml phosphokinase, 3 mM DTT, 113 mM KAc, and 0.7 mM MgAc2. Aliquot into eppendorf tubes and freeze at −80° C. • B. Luciferase Stability Buffer (SB): 25 mM Tris-HCl, pH 7.8; 8 mM MgSO4; 0.1 mM EDTA; 10 mg/ml BSA; 10% Glycerol; 0.25% Triton X-100. Make 2×SB and store at −20° C. • C. Cell Lysate (CL) Buffer: Buffer A containing 1 mM ATP; 14.3 mM creatine phosphate; 71 ug/ml phosphokinase; 3 mM DTT; 113 mM KAc; and 0.7 mM MgAc2. • D. Luciferase: Promega E1701, 14.9 mg/ml=244 μM. Dilute 1:60 in 30 mM Tris-HCl, pH 7.4, 2 mM DTT, and 20% glycerol, resulting in a stock luciferase solution with concentration of 4 μM (250 ng/μl). • E. Luciferase substrate: Promega E1500. Procedure: • 1) Mix luciferase solution 1:1 with 2× SB buffer. Incubate at 42° C. for 8 min to denature. […] Data analysis: Luciferase refolding activity of a cell lysate sample with or without HSP90 inhibitor is represented as the net of luminescence reading from a cell lysate sample subtracting results from negative control (no cell lysate or heat shock proteins). Inhibition effect of a compound is calculated as the percentage of refolding activity relative to samples without any inhibitors in the cell lysate.
The ability of selected compounds of the invention to inhibit luciferase refolding by Hsp90 based on this assay is summarized in Table 14.

[3] = target: Hsp90α Protein (Homo sapiens, UniProt P07900); experiment: Hsp90 CE Competitive Binding Assay (displacement of fluorescein-labelled geldanamycin)
Protocol: Hsp90 CE Competitive Binding Assay: […]
b) “Competitor”, fluorescein-labelled geldanamycin • The competitor was synthesized as described by Llauger-Bufi et al, Bioorg.
The electrophoresis running buffer (RB) is comprised of 200 mM CAPSO, pH 9.2 (pH-adjusted with Trizma base). The sample buffer (SB) is comprised of 10 mM Trizma base, pH 8.0 (pH-adjusted with glacial acetic acid), 5 mM MgCl2, 5 mM DTT, and BSA and Triton as noted.
Capillary electrophoresis was performed on Cetek Gemini Systems™ using laser-induced fluorescence detection. Fused-silica capillaries (50 μm I.D.×30 cm, approximately 10 cm length from end to detection window) were internally coated using Cetek's proprietary methods.
Each sample (i.e., fermentation extract, partially-purified fraction, or compound mixture, or pure compound) to be assayed is prediluted 1:20 or 1:40 in SB containing 0.02% Triton. 1 μl of each prediluted sample is then deposited into a 96-well microtiter plate and mixed with 8 μl of Target Cocktail. These samples can be stored at 4° C. until ready for assay.
When ready for analysis, the plates are transferred to the deck of a Gemini System. To each mixture of sample and target, 1 μl of Competitor Cocktail is added and mixed thoroughly. This reaction mixture is allowed to incubate for 8 minutes on the refrigerated deck of the Gemini System (temperature 8° C.). During incubation, the CE capillary is rinsed for 30 seconds with RB containing 2 mg/ml BSA, and then 60 seconds with RB. At the end of incubation, a small plug of the reaction mixture is then injected into the capillary at low pressure (0.5 psi) for 7 seconds. The loaded capillary is then dipped into reservoirs containing RB and the sample is electrophoresed at 10 kV for 6 minutes at a temperature of 8° C.
The electrophoretic separation produces a graphical profile known as an “electropherogram,” which contains a peak representing the intact complex between Hsp90 and competitor, and a smaller series (typically, a triplet) of peaks representing unbound competitor. […] Dose-response experiments, which evaluate the degree of competitor displacement as a function of sample concentration, are subsequently run in triplicate to validate hits and to quantitate their potencies, which are expressed as IC50 values.
Negative controls are comprised of 0.5% DMSO, and positive controls are comprised of 0.1 μg/ml 17-AAG.

[4] = tested on: HER2/Neu protein in SK-OV-3 cells; experiment: Hsp90 Client Protein Degradation Assay; assay type: cell-based; conditions: for IC50: Homo sapiens, 50% degradation of HER2/Neu protein, SK-OV-3 cells, overnight
Protocol: Hsp90 Client Protein Degradation Assay
SK-OV-3 cells were obtained from ATCC (Rockville, Md.) and maintained in McCoy's 5A Media with 10% Fetal Bovine Serum (ATCC) at 37° C. with 5% CO2 in humidified incubators. Cells were plated at 2 ml per well at 100,000 cells/ml in six well dishes. Cells were incubated overnight at 37° C. and given test agent compound the following day in a titrated series. Cell incubation in the presence of compound proceeded overnight at 37° with 5% CO2 in media in the presence of serum. The following day media was aspirated and cells washed on plate with 2 mls of cold D-PBS. 100 ul of 1× Laemli's buffer was added to each well and total protein obtained by scraping the cell pellet and removing to 1.5 ml Eppendorf tube on ice. Cells were further lysed and DNA was fragmented by sonication and cells debris pelleted at 14 K for 3 min at 4° C. 20 ul was loaded per well and fractionated on PAGE gels. Western analyses were performed using abs specifically for the Hsp90 client proteins HER-2 (Santa Cruz Biotech, Santa Cruz, Calif.) and c-raf-1 (Cell Signaling Technology, Danvers, Mass.). Loading per well was controlled by testing for g-actin on Western Blots (Cell Signaling Technology) simultaneous to testing for HER-2 or c-raf-1. Detection was via a secondary antibody conjugated to Horse radish peroxidase (HRP) and enhanced chemiluminescent detection from Supersignal West Pico Detection Kits from Pierce (Rockford, Ill.). Autoradiography was via Kodak X-OMAT film and developing via a Kodak M35 film processor.

[5] = Table 14, inhibition of binding of labeled geldanamycin to Hsp90, read-out: CE IC50
[6] = versus corresponding alcohol (R═H)
[7] = initial structure activity relationship table, read-out: HSP90 CE IC50

SMILES | IC50 [1] [µM] | IC50 [2] [µM] | IC50 [3, 5] [µM] | more activity than the corresponding alcohol (R═H), CE Hsp90 assay [3, 6] [fold] | IC50 [4] [µM] | more activity than the corresponding alcohol (R═H), client protein assay [4, 6] [fold] | IC50 [3] [µM] | IC50 [3, 7] [µM]
Nc1nc(F)nc2c1nc(Cc1cc3c(cc1I)OCO3)n2CCCCCCOS(N)(=O)=O [Example 5, Sulfamic Acid 6-[6-amino-2-fluoro-8-(6-iodo-benzo[1,3]dioxol-5-ylmethyl)-purin-9-yl]-hexyl ester] | < 5 | < 1 | < 0.04 | 35 | < 3 | 16 |  | 
Nc1nc(F)nc2c1nc(Cc1cc3c(cc1I)OCO3)n2CCCCCCCCOS(N)(=O)=O [Example 7, Sulfamic Acid 8-[6-amino-2-fluoro-8-(6-iodo-benzo[1,3]dioxol-5-ylmethyl)-purin-9-yl]-octyl ester] | < 100 |  | < 2 |  | < 50 |  |  | 
Nc1nc(F)nc2c1nc(Cc1cc3c(cc1I)OCO3)n2CCOS(N)(=O)=O [Example 1, Sulfamic Acid 2-[6-amino-2-fluoro-8-(6-iodo-benzo[1,3]dioxol-5-ylmethyl)-purin-9-yl]-ethyl ester] | < 5 | < 1 | < 0.04 |  | < 3 |  |  | 
Nc1nc(F)nc2c1nc(Cc1cc3c(cc1I)OCO3)n2CCOCCOS(N)(=O)=O [Example 8, Sulfamic Acid 2-{2-[6-amino-2-fluoro-8-(6-iodo-benzo[1,3]dioxol-5-ylmethyl)-purin-9-yl]-ethoxy}-ethyl ester] | < 5 | < 1 | < 0.04 |  | < 3 |  |  | 
Nc1nc(F)nc2c1nc(Cc1cc3c(cc1I)OCO3)n2CCCOS(N)(=O)=O [Example 2, Sulfamic Acid 3-[6-Amino-2-fluoro-8-(6-iodo-benzo[1,3]dioxol-5-ylmethyl)-purin-9-yl]-propyl ester] | < 5 | < 1 | < 0.04 |  | < 3 |  |  | 
Nc1nc(F)nc2c1nc(Cc1cc3c(cc1I)OCO3)n2CCCCCCCOS(N)(=O)=O [Example 6, Sulfamic Acid 7-[6-amino-2-fluoro-8-(6-iodo-benzo[1,3]dioxol-5-ylmethyl)-purin-9-yl]-heptyl ester] | < 5 | < 1 | < 0.04 |  | < 3 |  |  | 
Nc1nc(F)nc2[nH]c(Cc3cc4c(cc3I)OCO4)nc12 [Intermediate 5, 2-Fluoro-8-(6-iodo-benzo[1,3]dioxol-5-ylmethyl)-9H-purin-6-ylamine] | < 100 | < 5 | < 2 |  | < 50 |  |  | 
Nc1nc(F)nc2c1ncn2C1OC(CO)C(O)C1O (centres unmarked) [Fluoroadenosine (FA), Fluoroadenosine, reference compound] |  |  |  |  |  |  | 22 | 
Nc1nc(F)nc2c1nc(Cc1cc3c(cc1I)OCO3)n2CCCCCOS(N)(=O)=O [Example 4, Sulfamic Acid 5-[6-amino-2-fluoro-8-(6-iodo-benzo[1,3]dioxol-5-ylmethyl)-purin-9-yl]-pentyl ester] | < 5 | < 1 | < 0.04 |  | < 3 |  |  | 
Nc1ncnc2c1ncn2C1OC(COP(=O)(O)O)C(O)C1O (centres unmarked) [AMP, reference compound] |  |  |  |  |  |  |  | > 144
Nc1nc(F)nc2c1ncn2C1OC(COS(N)(=O)=O)C(O)C1O (centres unmarked) [FSA, reference compound] |  |  |  |  |  |  |  | 0.7
Nc1nc(F)nc2c1nc(Cc1cc3c(cc1I)OCO3)n2CCOCCCCOS(N)(=O)=O [Example 10, Sulfamic Acid 4-{2-[6-amino-2-fluoro-8-(6-iodo-benzo[1,3]dioxol-5-ylmethyl)-purin-9-yl]-ethoxy}-butyl ester] | < 5 | < 1 | < 0.04 |  | < 3 |  |  | 
Nc1nc(F)nc2c1nc(Cc1cc3c(cc1I)OCO3)n2CCOCCCOS(N)(=O)=O [Example 9, Sulfamic Acid 3-{2-[6-amino-2-fluoro-8-(6-iodo-benzo[1,3]dioxol-5-ylmethyl)-purin-9-yl]-ethoxy}-propyl ester] | < 5 | < 1 | < 0.04 |  | < 3 |  |  | 
